Active and inactive are the calls of the source. No cut-off for these calls is given here.
Experiments:
[1] = Toxicity against brine shrimp at 125 ug/mL; type: organism-based; details: artemia, in vivo; read-out: Activity
[2] = system: Vibrio harveyi; test: Antimicrobial activity against Vibrio harveyi; type: functional, organism-based

Structure (SMILES): CC/C=C\C[C@H]1O[C@@H]1/C=C/C1CCCCCCCC(=O)O1 (some centres not stated) [GLOEOLACTONE]
- mortality at 125 ug/mL [1]: 100%
- Activity [2]: inactive

— ChEMBL document CHEMBL1141806, “Gloeolactone, a New Epoxy Lactone from a Blue-Green Alga” (J Nat Prod, 1998)
